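48-hour exposure; five concentrations; linearly interpolated endpoints. Here, GI50 denotes the concentration required for 50% inhibition of growth.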 The source made the active and inactive calls. Cut-off read from the data, not from the text of the source: active = GI50 up to about 1.1 µM and inactive = higher.
How the values were obtained:
Experiment in all cases: NCI tumour cell line growth inhibition, 48 h
SNB-19 = test system: SNB-19
DU-145 = test system: DU-145
HCT-15 = test system: HCT-15
KM12 = test system: KM12
MDA-MB-231 = test system: MDA-MB-231
NCI-H226 = test system: NCI-H226
CCRF-CEM = test system: CCRF-CEM
MCF7 = test system: MCF7
OVCAR-8 = test system: OVCAR-8
EKVX = test system: EKVX
OVCAR-5 = test system: OVCAR-5
RXF 393 = test system: RXF 393
TK-10 = test system: TK-10
PC-3 = test system: PC-3
SN12C = test system: SN12C
COLO 205 = test system: COLO 205
NCI-H23 = test system: NCI-H23
U-251 = test system: U-251
NCI/ADR-RES = test system: NCI/ADR-RES

Structure (SMILES) | GI50 (SNB-19) | GI50 (DU-145) | GI50 (HCT-15) [µM] | GI50 (KM12) | GI50 (MDA-MB-231) | GI50 (NCI-H226) | GI50 (CCRF-CEM) | GI50 (MCF7) | GI50 (OVCAR-8) | GI50 (EKVX) | GI50 (OVCAR-5) | GI50 (RXF 393) | GI50 (TK-10) | GI50 (PC-3) | GI50 (SN12C) | GI50 (COLO 205) | GI50 (NCI-H23) | GI50 (U-251) | GI50 (NCI/ADR-RES)
COc1cc(C2c3cc4c(cc3OC(C)(N3CCCC3)C2C)OCO4)cc(OC)c1OC (stereo not drawn) | 0.391 µM (active) | 0.327 µM (active) | 0.472 | 0.286 µM (active) | 0.551 µM (active) | 0.313 µM (active) | 0.267 µM (active) | 0.457 µM (active) | 0.472 µM (active) | 0.43 µM (active) | 0.49 µM (active) | 0.256 µM (active) | 0.524 µM (active) | 0.34 µM (active) | 0.446 µM (active) | 0.22 µM (active) | 0.883 µM (active) | 0.385 µM (active) | 0.192 µM (active)
Cc1csc2n(C)c(=O)c3ccccc3[n+]12 | > 100 µM (inactive) | > 100 µM (inactive) | > 100 | > 100 µM (inactive) | > 100 µM (inactive) | > 100 µM (inactive) | > 100 µM (inactive) | > 100 µM (inactive) | > 100 µM (inactive) | > 100 µM (inactive) | > 100 µM (inactive) | > 100 µM (inactive) | > 100 µM (inactive) | > 100 µM (inactive) | > 100 µM (inactive) | > 100 µM (inactive) | > 100 µM (inactive) | > 100 µM (inactive) | > 100 µM (inactive)
CCOC(=O)CC/C(=N/Nc1ccc(Cl)cc1[N+](=O)[O-])C(=O)OCC | > 100 µM (inactive) | > 100 µM (inactive) | > 100 | > 100 µM (inactive) | > 100 µM (inactive) | > 100 µM (inactive) | > 100 µM (inactive) | > 100 µM (inactive) | > 100 µM (inactive) | > 100 µM (inactive) | > 100 µM (inactive) | > 100 µM (inactive) | > 100 µM (inactive) | > 100 µM (inactive) | > 100 µM (inactive) | > 100 µM (inactive) | > 100 µM (inactive) | > 100 µM (inactive) | > 100 µM (inactive)
COC(=O)C(CCSC)NC(=O)CSc1nnc(COc2ccc(Cl)cc2)n1-c1ccccc1 (stereo not drawn) | 23.5 µM (inactive) | 18.2 µM (inactive) | 18.6 | 18.2 µM (inactive) | 17 µM (inactive) | 21.4 µM (inactive) | 23.7 µM (inactive) | 21.1 µM (inactive) | 18.6 µM (inactive) | 27.6 µM (inactive) | 19.5 µM (inactive) | 19.1 µM (inactive) | 19.1 µM (inactive) | 18.9 µM (inactive) | 17.8 µM (inactive) | 18.3 µM (inactive) | 17.8 µM (inactive) | 17.1 µM (inactive) | 17.6 µM (inactive)
CC/C(N)=N\NC(=O)OC(C)(C)C | > 100 µM (inactive) | > 100 µM (inactive) | > 100 | > 100 µM (inactive) | > 100 µM (inactive) | > 100 µM (inactive) | > 100 µM (inactive) | > 100 µM (inactive) | > 100 µM (inactive) | > 100 µM (inactive) | > 100 µM (inactive) | > 100 µM (inactive) | > 100 µM (inactive) | > 100 µM (inactive) | > 100 µM (inactive) | > 100 µM (inactive) | > 100 µM (inactive) | > 100 µM (inactive) | > 100 µM (inactive)
COC(=O)Cc1ccc2c(c1)Sc1ccc(CC(=O)OC)cc1N2C | 44 µM (inactive) | > 71.6 µM (inactive) | 14.7 | 8.07 µM (inactive) | 13.4 µM (inactive) | 49.5 µM (inactive) | 22 µM (inactive) | 9.57 µM (inactive) | 34.3 µM (inactive) | 42 µM (inactive) | > 65.5 µM (inactive) | 25.1 µM (inactive) | 58.3 µM (inactive) | 25.8 µM (inactive) | 33.7 µM (inactive) | 18.2 µM (inactive) | 28.6 µM (inactive) | 19.4 µM (inactive) | 16.3 µM (inactive)
COc1cc(C2c3cc4c(cc3OC(NNc3ccccc3)C2C)OCO4)cc(OC)c1OC (stereo not drawn) | 1.32 µM (inactive) | 2.11 µM (inactive) | 0.417 | 0.395 µM (active) | 3.26 µM (inactive) | 1.92 µM (inactive) | 0.885 µM (active) | 0.714 µM (active) | 2.81 µM (inactive) | 1.73 µM (inactive) | 1.69 µM (inactive) | 1.54 µM (inactive) | 2.48 µM (inactive) | 0.778 µM (active) | 2.99 µM (inactive) | 1.46 µM (inactive) | 2.83 µM (inactive) | 1.12 µM (inactive) | 0.597 µM (active)

— ChEMBL document CHEMBL1201862, “PubChem BioAssay data set” (2004)
